Measured values reported in PMC9817970 (Cancers, 2022).

How the values were obtained:
HMC1.2 cells [1] = experiment: Cell viability assay (CellTiter-Glo); assay type: cell-based, human; conditions: Homo sapiens, 72 h
Description: (§1) GIST-T1 (Cosmobio, Tokyo, Japan, # PMC-GIST01C-COS) cells were cultured in DMEM (Welgene, # LM001-05) and HMC1.2 (Merck, Darmstadt, Germany, # SCC062) cells were cultured in IMDM (Welgene, # LM004-01). Parental Ba/F3 (DSMZ, Braunschweig, Germany, # ACC300) cells were cultured in RPMI (Welgene, # LM011-51) with 10 ng IL-3/mL (Enzo, # ALX-201-821). The culture media was supplemented with 10% fetal bovine serum and 1% penicillin/streptomycin solution. The cells were maintained in a humidified atmosphere containing 5% CO2 at 37 °C.
(§2) Cells (GIST-T1: 5.0 × 10^3; HMC1.2: 1 × 10^4) were seeded in 96-well plates. Each compound was treated in each well at 10 dose points of 3-fold serial dilution. After treatment with each compound for 72 h, CellTiter-Glo solution (Promega, # G7572) was added to each well. Anti-proliferation activity was measured the luminescence using a 96-well plate reader (EnVision 2013).

c-KIT D816V Ba/F3 cells [2] = experiment: Anti-proliferative activity on Ba/F3 cells; assay type: cell-based; conditions: Mus musculus, BaF3
parental Ba/F3 cells = experiment: Anti-proliferative activity on Ba/F3 cells; assay type: cell-based; conditions: Mus musculus, BaF3
Description: as §1, §2

[3] = system: c-KIT auto-phosphorylation in HMC1.2 cells; experiment: Western blot of c-KIT signaling; assay type: cell-based, human; conditions: 10 μM
Description: (§3) Cells were harvested and lysed using RIPA buffer containing 50 mM HEPES (pH 7.4), 1% Triton X-100, 2 mM EDTA, 150 mM NaCl, 2.5 mM NaF, 5 mM Na3VO4, and protease inhibitor cocktail tablet (Roche, # 11–878-580–001). Proteins were separated and transferred to an NC membrane. The membranes were blocked using 5% skim milk in TBS-T buffer. The p-c-KIT (Tyr703, # 3073), p-AKT (Ser473, # 9271), p-ERK (Thr202/Tyr204, # 8544), ERK (# 4695), p-PLCγ (Tyr783, # 14008), p-STAT3 (Tyr705, # 4074), and PARP (# 9542) antibodies were obtained from Cell Signaling Technologies. The β-actin (# sc-47778) and STAT3 (# sc-482) antibodies were obtained from Santa Cruz Biotechnology. AKT (A18120) antibody was purchased from ABclonal. Each primary antibody was incubated overnight at 4 °C. The secondary antibody (GenDEPOT) was incubated for 1 h at room temperature. Proteins were detected using ECL substrate.

[4] = system: phosphorylated c-KIT (Tyr703) and downstream signaling in GIST-T1 cells; experiment: Western blot of c-KIT signaling; assay type: cell-based, human
Description: as §3

[5] = system: c-KIT auto-phosphorylation in c-KIT D816V Ba/F3 cells; experiment: Western blot of c-KIT signaling; assay type: cell-based; conditions: 10 μM
Description: as §3

GIST-T1 cells [6] = experiment: Apoptosis analysis (annexinV/PI flow cytometry); assay type: cell-based, human; conditions: GIST-T1, 0.05 μM
Description: (§4) After compound treatment in GIST-T1 and HMC1.2 cells for 24 h, cells were fixed with 70% cold ethanol. Then, cells were incubated with 50 μg propidium iodide/mL solution (PI, Sigma) containing 1 mg RNase A/mL for 30 min in the dark. Cell cycle arrest was analyzed (BD Accuri), and data were processed using BD Accuri^TM C6 software. For apoptosis analysis, compound treatment for 24–48 h, cells were harvested and stained with annexinV and PI solution. 1 × 10^5 cells were analyzed using flow cytometric analysis.

HMC1.2 cells [7] = experiment: Apoptosis analysis (annexinV/PI flow cytometry); assay type: cell-based, human; conditions: HMC1.2, 1 μM, 48 h
Description: as §4

c-KIT D816V Ba/F3 cells [8] = experiment: Apoptosis analysis (annexinV/PI flow cytometry); assay type: cell-based; conditions: c-KIT D816V Ba/F3, 1 μM
Description: as §4

GIST-T1 cells [9] = experiment: Cell cycle arrest analysis (PI flow cytometry); assay type: cell-based, human; conditions: GIST-T1, 0.01 μM
Description: as §4

HMC1.2 cells [10] = experiment: Cell cycle arrest analysis (PI flow cytometry); assay type: cell-based, human; conditions: HMC1.2, 0.5 μM, 24 h
Description: as §4

GIST-T1 cells [11] = experiment: Migration (wound healing) assay; assay type: cell-based, human; conditions: GIST-T1, 0.005 μM and 0.05 μM, 36 h
Description: GIST-T1 cells were seeded in 6-well plates at 2 × 10^6 cells. Next day, cells were washed with PBS and wounded in the center of each well. Then, GIST-T1 cells were washed with PBS and added to fresh DMEM.

GIST-T1 cells [12] = experiment: Invasion assay (Transwell); assay type: cell-based, human; conditions: GIST-T1, 0.05 μM, 48 h
Description: The cell invasion assay was performed using Transwell membrane filter inserts (Corning Costar Corp., Corning, NY, USA). GIST-T1 cells were then suspended in serum-free DMEM at 2 × 10^6 cells and seeded in the upper chambers. In the lower chambers, the DMEM medium containing 10% FBS was added. After 48 h, the cells migrating down the membrane were stained with crystal violet.

GIST-T1 cells [13] = experiment: Soft agar assay (anchorage-independent growth); assay type: cell-based, human; conditions: 3 weeks
Description: Anchorage-independent growth was assessed by determining colony formation on soft agar. GIST-T1 cells in DMEM media containing 0.7% agar were plated at 5,000 cells per well. Cells were treated with each compound for 3 weeks, and the media were changed every 3 days. Colonies were stained using iodonitrotetrazolium chloride (Sigma Aldrich). The average number colonies were counted using ImageJ software (version 1.53e, National Institutes of Health, Bethesda, MD, USA)

c-KIT = c-KIT (Homo sapiens, UniProt P10721); experiment: Radiometric biochemical kinase assay on c-KIT; parameters: purchased Reaction Biology Corp. (contract assay service)
Chain of c-KIT (P10721 26-976): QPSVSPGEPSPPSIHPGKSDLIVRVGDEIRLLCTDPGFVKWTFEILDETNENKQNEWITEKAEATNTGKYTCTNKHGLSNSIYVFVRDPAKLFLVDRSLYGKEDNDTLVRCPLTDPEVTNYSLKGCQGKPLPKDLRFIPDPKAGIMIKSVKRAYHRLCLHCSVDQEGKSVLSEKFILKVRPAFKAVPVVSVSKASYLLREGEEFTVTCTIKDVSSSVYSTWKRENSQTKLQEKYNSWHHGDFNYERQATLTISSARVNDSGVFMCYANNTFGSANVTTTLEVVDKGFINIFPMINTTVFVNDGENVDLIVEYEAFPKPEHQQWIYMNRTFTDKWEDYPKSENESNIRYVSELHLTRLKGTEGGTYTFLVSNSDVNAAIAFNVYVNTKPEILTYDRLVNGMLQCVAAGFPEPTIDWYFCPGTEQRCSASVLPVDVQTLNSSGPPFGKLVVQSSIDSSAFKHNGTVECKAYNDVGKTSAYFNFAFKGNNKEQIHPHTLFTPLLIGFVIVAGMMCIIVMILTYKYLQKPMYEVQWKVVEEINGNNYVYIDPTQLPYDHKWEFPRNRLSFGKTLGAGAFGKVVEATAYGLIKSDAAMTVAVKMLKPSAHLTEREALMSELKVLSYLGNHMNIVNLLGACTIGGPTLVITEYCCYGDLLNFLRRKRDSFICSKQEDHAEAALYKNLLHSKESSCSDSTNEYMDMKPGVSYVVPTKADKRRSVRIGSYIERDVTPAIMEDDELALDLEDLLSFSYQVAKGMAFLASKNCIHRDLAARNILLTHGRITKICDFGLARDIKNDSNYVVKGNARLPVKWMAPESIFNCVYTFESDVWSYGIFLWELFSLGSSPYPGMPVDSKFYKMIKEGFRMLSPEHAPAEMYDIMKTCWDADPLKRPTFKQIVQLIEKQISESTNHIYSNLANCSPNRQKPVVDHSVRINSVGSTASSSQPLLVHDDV
Description: Biochemical kinase assays on c-KIT protein kinase were performed at Reaction Biology Corp. (San Diego, CA, USA). […] The kinase assay followed the manufacturer’s instruction. IC50 values were calculated by GraphPad prism 8.0 software (GraphPad Software, San Diego, CA, USA).
Enzymatic inhibitory activities of all synthesized thiazolo[5,4-b]pyridine derivatives against c-KIT were measured using radiometric biochemical kinase assays (Table 1). We first explored the R1 group of the thiazolo[5,4-b]pyridine scaffold.

Cc1ccc(NC(=O)c2ccc(CN3CCN(C)CC3)c(C(F)(F)F)c2)cc1-c1cnc2sc(N)nc2c1 [6r]
GI50 (HMC1.2 cells [1]): 1150 ± 960 nM
GI50 (c-KIT D816V Ba/F3 cells [2]): 1110 ± 470 nM
GI50 (parental Ba/F3 cells): 8060 ± 570 nM
c-KIT auto-phosphorylation [3]: completely inhibited
levels of phosphorylated c-KIT (Tyr703) and downstream mediators p-AKT, p-ERK, p-PLCγ, p-STAT3 [4]: remarkably inhibited
c-KIT auto-phosphorylation [5]: completely inhibited
production of apoptotic cells (GIST-T1 cells [6]): remarkably induced
production of apoptotic cells (HMC1.2 cells [7]): remarkably induced
production of apoptotic cells (c-KIT D816V Ba/F3 cells [8]): remarkably induced
G0/G1 arrest induced compared to control (GIST-T1 cells [9]): 25–35%
G0/G1 arrest compared with imatinib (HMC1.2 cells [10]): more strongly
cell migration decreased compared to control (GIST-T1 cells [11]): 50–70%
invasion capability (GIST-T1 cells [12]): significantly suppressing
anchorage-independent growth (GIST-T1 cells [13]; GIST-T1, 0.05 μM, compared to control): completely suppressed
anchorage-independent growth (GIST-T1 cells [13]; GIST-T1, two different concentrations): dramatic inhibition
IC50 (c-KIT; read-out: IC50 against c-KIT): 140 nM
fold enhanced c-KIT inhibitory activity compared to 6m (c-KIT; versus 6m): 15.5 fold
fold higher c-KIT inhibitory activity than imatinib (c-KIT; versus imatinib): 1.9 fold
